Measured values published in US9073853B2, “Cycloalkane carboxylic acid derivatives as CXCR3 receptor antagonists” (Sanofi, priority 2011, dated 2015).

biological target: human CXCR3-A receptor (Homo sapiens (Human), UniProt P49682); experiment: 125I-CXCL10 competition radioligand binding assay; details: displacement of 125I-CXCL10 from membranes of CHO cells expressing human recombinant CXCR3-A
In short: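 Membranes from a recombinant cell line expressing human CXCR3-A (10-20 μg protein) were incubated with 125I-CXCL10 and test compound for 60 min at 25° C, then filtered onto PEI-soaked GF/B filters and gamma-counted. IC50 and Hill slope came from four-parameter nonlinear fitting of competition curves.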

Chain of human CXCR3-A receptor (P49682 whole entry): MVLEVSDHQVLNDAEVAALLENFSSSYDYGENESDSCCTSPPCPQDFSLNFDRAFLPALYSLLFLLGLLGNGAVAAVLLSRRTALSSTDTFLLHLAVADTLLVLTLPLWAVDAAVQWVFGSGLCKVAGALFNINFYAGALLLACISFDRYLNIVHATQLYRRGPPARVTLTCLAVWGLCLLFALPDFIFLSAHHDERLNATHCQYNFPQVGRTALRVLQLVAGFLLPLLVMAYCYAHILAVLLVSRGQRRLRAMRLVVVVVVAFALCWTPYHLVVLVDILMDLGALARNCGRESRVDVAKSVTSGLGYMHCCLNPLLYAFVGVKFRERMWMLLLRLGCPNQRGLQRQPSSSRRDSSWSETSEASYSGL

IC50 [nM]	Structure (SMILES)
52	CCc1cc(CN(C[C@H]2CC[C@H](C(=O)O)CC2)C(C)c2ccc(Cl)c(F)c2)ccc1OCCN1C(=O)CCC1=O (stereo partly drawn) [Example 89, trans-4-[([1-(4-Chloro-3-fluoro-phenyl)-ethyl]-{4-[2-(2,5-dioxo-pyrrolidin-1-yl)-ethoxy]-3-ethyl-benzyl}-amino)-methyl]-cyclohexanecarboxylic acid]
494	CCc1cc(CN(C[C@H]2CC[C@H](C(=O)O)CC2)[C@H](C)c2ccc(Cl)c(F)c2)ccc1OCCN1C(=O)CCC1=O [Example 90, trans-4-[([(R)-1-(4-Chloro-3-fluoro-phenyl)-ethyl]-{4-[2-(2,5-dioxo-pyrrolidin-1-yl)-ethoxy]-3-ethyl-benzyl}-amino)-methyl]-cyclohexanecarboxylic acid]
121	CCc1cc(CN(C[C@H]2CC[C@H](C(=O)O)CC2)[C@@H](C)c2ccc(Cl)c(F)c2)ccc1OCCN1C(=O)CCC1=O [Example 91, trans-4-[([(S)-1-(4-Chloro-3-fluoro-phenyl)-ethyl]-{4-[2-(2,5-dioxo-pyrrolidin-1-yl)-ethoxy]-3-ethyl-benzyl}-amino)-methyl]-cyclohexanecarboxylic acid]
220	CC(c1ccc(Cl)c(F)c1)N(Cc1ccc(OCCN2C(=O)CCC2=O)c(F)c1)C[C@H]1CC[C@H](C(=O)O)CC1 (stereo partly drawn) [Example 92, trans-4-[([1-(4-Chloro-3-fluoro-phenyl)-ethyl]-{4-[2-(2,5-dioxo-pyrrolidin-1-yl)-ethoxy]-3-fluoro-benzyl}-amino)-methyl]-cyclohexanecarboxylic acid]
84	COc1cc(CN(C[C@H]2CC[C@H](C(=O)O)CC2)C2CCc3c2ccc(F)c3Cl)ccc1OCCN1C(=O)CCC1=O (stereo partly drawn) [Example 93, trans-4-[((4-Chloro-5-fluoro-indan-1-yl)-{4-[2-(2,5-dioxo-pyrrolidin-1-yl)-ethoxy]-3-methoxy-benzyl}-amino)-methyl]-cyclohexanecarboxylic acid]
630	COc1cc(CN(C[C@H]2CC[C@H](C(=O)O)CC2)C2CCc3cc(F)c(Cl)cc32)ccc1OCCN1C(=O)CCC1=O (stereo partly drawn) [Example 94, trans-4-[((6-Chloro-5-fluoro-indan-1-yl)-{4-[2-(2,5-dioxo-pyrrolidin-1-yl)-ethoxy]-3-methoxy-benzyl}-amino)-methyl]-cyclohexanecarboxylic acid]
4040	CCc1cc(CN(C[C@H]2CC[C@H](C(=O)O)CC2)C2CCc3cc(F)c(Cl)cc32)ccc1OCCN1C(=O)CCC1=O (stereo partly drawn) [Example 95, trans-4-[((6-Chloro-5-fluoro-indan-1-yl)-{4-[2-(2,5-dioxo-pyrrolidin-1-yl)-ethoxy]-3-ethyl-benzyl}-amino)-methyl]-cyclohexanecarboxylic acid]
443	CCc1cc(CN(C[C@H]2CC[C@H](C(=O)O)CC2)C2CCc3c2ccc(F)c3Cl)ccc1OCCN1C(=O)CCC1=O (stereo partly drawn) [Example 96, trans-4-[((4-Chloro-5-fluoro-indan-1-yl)-{4-[2-(2,5-dioxo-pyrrolidin-1-yl)-ethoxy]-3-ethyl-benzyl}-amino)-methyl]-cyclohexanecarboxylic acid]
4640	O=C1CCC(=O)N1CCOc1ccc(CN(C[C@H]2CC[C@H](C(=O)O)CC2)C2CCc3cc(F)c(Cl)cc32)cc1F (stereo partly drawn) [Example 97, trans-4-[((6-Chloro-5-fluoro-indan-1-yl)-{4-[2-(2,5-dioxo-pyrrolidin-1-yl)-ethoxy]-3-fluoro-benzyl}-amino)-methyl]-cyclohexanecarboxylic acid]
155	COc1cc(CN(C[C@H]2CC[C@H](C(=O)O)CC2)C2CCc3cc(Cl)c(F)cc32)ccc1OCCN1C(=O)CCC1=O (stereo partly drawn) [Example 98, trans-4-[((5-Chloro-6-fluoro-indan-1-yl)-{4-[2-(2,5-dioxo-pyrrolidin-1-yl)-ethoxy]-3-methoxy-benzyl}-amino)-methyl]-cyclohexanecarboxylic acid]
223	COc1cc(CN(C[C@@H]2CC[C@@H](C(=O)O)C2)[C@@H](C)c2ccc(Cl)cc2)ccc1OCCN1C(=O)CCC1=O [Example 99, (1R,3R)-3-[([(S)-1-(4-Chloro-phenyl)-ethyl]-{4-[2-(2,5-dioxo-pyrrolidin-1-yl)-ethoxy]-3-methoxy-benzyl}-amino)-methyl]-cyclopentanecarboxylic acid]
108	COc1cc(CN(C[C@H]2CC[C@H](C(=O)O)C2)[C@@H](C)c2ccc(Cl)cc2)ccc1OCCN1C(=O)CCC1=O [Example 100, (1S,3S)-3-[([(S)-1-(4-Chloro-phenyl)-ethyl]-{4-[2-(2,5-dioxo-pyrrolidin-1-yl)-ethoxy]-3-methoxy-benzyl}-amino)-methyl]-cyclopentanecarboxylic acid]
1810	COc1cc(CN(C[C@H]2CC[C@@H](C(=O)O)C2)[C@@H](C)c2ccc(Cl)cc2)ccc1OCCN1C(=O)CCC1=O [Example 101, (1R,3S)-3-[([(S)-1-(4-Chloro-phenyl)-ethyl]-{4-[2-(2,5-dioxo-pyrrolidin-1-yl)-ethoxy]-3-methoxy-benzyl}-amino)-methyl]-cyclopentanecarboxylic acid]
154	COc1cc(CN(C[C@@H]2CC[C@H](C(=O)O)C2)[C@@H](C)c2ccc(Cl)cc2)ccc1OCCN1C(=O)CCC1=O [Example 102, (1S,3R)-3-[([(S)-1-(4-Chloro-phenyl)-ethyl]-{4-[2-(2,5-dioxo-pyrrolidin-1-yl)-ethoxy]-3-methoxy-benzyl}-amino)-methyl]-cyclopentanecarboxylic acid]
260	COc1cc(CN(C[C@H]2CC[C@@H](C(=O)O)C2)[C@H](C)c2ccc3c(c2)CCO3)ccc1OCCN1C(=O)CCC1=O [Example 103, (1R,3S)-3-[([(R)-1-(2,3-Dihydro-benzofuran-5-yl)-ethyl]-{4-[2-(2,5-dioxo-pyrrolidin-1-yl)-ethoxy]-3-methoxy-benzyl}-amino)-methyl]-cyclopentanecarboxylic acid]
15	COc1cc(CN(C[C@@H]2CC[C@@H](C(=O)O)C2)[C@H](C)c2ccc3c(c2)CCO3)ccc1OCCN1C(=O)CCC1=O [Example 104, (1R,3R)-3-[([(R)-1-(2,3-Dihydro-benzofuran-5-yl)-ethyl]-{4-[2-(2,5-dioxo-pyrrolidin-1-yl)-ethoxy]-3-methoxy-benzyl}-amino)-methyl]-cyclopentanecarboxylic acid]
53	COc1cc(CN(C[C@@H]2CC[C@@H](C(=O)O)C2)[C@@H](C)c2ccc3c(c2)CCO3)ccc1OCCN1C(=O)CCC1=O [Example 105, (1R,3R)-3-[([(S)-1-(2,3-Dihydro-benzofuran-5-yl)-ethyl]-{4-[2-(2,5-dioxo-pyrrolidin-1-yl)-ethoxy]-3-methoxy-benzyl}-amino)-methyl]-cyclopentanecarboxylic acid]
144	COc1cc(CN(C[C@@H]2CC[C@H](C(=O)O)C2)[C@@H](C)c2ccc3c(c2)CCO3)ccc1OCCN1C(=O)CCC1=O [Example 106, (1S,3R)-3-[([(S)-1-(2,3-Dihydro-benzofuran-5-yl)-ethyl]-{4-[2-(2,5-dioxo-pyrrolidin-1-yl)-ethoxy]-3-methoxy-benzyl}-amino)-methyl]-cyclopentanecarboxylic acid]
5130	COc1cc(CN(C[C@H]2CC[C@@H](C(=O)O)C2)[C@@H](C)c2ccc3c(c2)CCO3)ccc1OCCN1C(=O)CCC1=O [Example 107, (1R,3S)-3-[([(S)-1-(2,3-Dihydro-benzofuran-5-yl)-ethyl]-{4-[2-(2,5-dioxo-pyrrolidin-1-yl)-ethoxy]-3-methoxy-benzyl}-amino)-methyl]-cyclopentanecarboxylic acid]
190	COc1cc(CN(C[C@@H]2CC[C@H](C(=O)O)C2)[C@H](C)c2ccc3c(c2)CCO3)ccc1OCCN1C(=O)CCC1=O [Example 108, (1S,3R)-3-[([(R)-1-(2,3-Dihydro-benzofuran-5-yl)-ethyl]-{4-[2-(2,5-dioxo-pyrrolidin-1-yl)-ethoxy]-3-methoxy-benzyl}-amino)-methyl]-cyclopentanecarboxylic acid]
73	COc1cc(CN(C[C@H]2CC[C@H](C(=O)O)C2)[C@H](C)c2ccc3c(c2)CCO3)ccc1OCCN1C(=O)CCC1=O [Example 109, (1S,3S)-3-[([(R)-1-(2,3-Dihydro-benzofuran-5-yl)-ethyl]-{4-[2-(2,5-dioxo-pyrrolidin-1-yl)-ethoxy]-3-methoxy-benzyl}-amino)-methyl]-cyclopentanecarboxylic acid]
525	COc1cc(CN(C[C@H]2CC[C@H](C(=O)O)C2)[C@@H](C)c2ccc3c(c2)CCO3)ccc1OCCN1C(=O)CCC1=O [Example 110, (1S,3S)-3-[([(S)-1-(2,3-Dihydro-benzofuran-5-yl)-ethyl]-{4-[2-(2,5-dioxo-pyrrolidin-1-yl)-ethoxy]-3-methoxy-benzyl}-amino)-methyl]-cyclopentanecarboxylic acid]
646	CCOC(=O)[C@@H]1C[C@H]1CN(Cc1ccc(OCCN2C(=O)CCC2=O)c(OC)c1)C(C)c1ccc2c(c1)CCO2 (stereo partly drawn) [Example 111, (1R,2R)-2-[([1-(2,3-Dihydro-benzofuran-5-yl)-ethyl]-{4-[2-(2,5-dioxo-pyrrolidin-1-yl)-ethoxy]-3-methoxy-benzyl}-amino)-methyl]-cyclopropanecarboxylic acid ethyl ester]
145	COc1cc(CN(C[C@@H]2C[C@H]2C(=O)O)C(C)c2ccc3c(c2)CCO3)ccc1OCCN1C(=O)CCC1=O (stereo partly drawn) [Example 112, (1R,2R)-2-[([1-(2,3-Dihydro-benzofuran-5-yl)-ethyl]-{4-[2-(2,5-dioxo-pyrrolidin-1-yl)-ethoxy]-3-methoxy-benzyl}-amino)-methyl]-cyclopropanecarboxylic acid]
82	CCOC(=O)[C@H]1C[C@H]1CN(Cc1ccc(OCCN2C(=O)CCC2=O)c(OC)c1)C(C)c1ccc2c(c1)CCO2 (stereo partly drawn) [Example 113, (1S,2R)-2-[([1-(2,3-Dihydro-benzofuran-5-yl)-ethyl]-{4-[2-(2,5-dioxo-pyrrolidin-1-yl)-ethoxy]-3-methoxy-benzyl}-amino)-methyl]-cyclopropanecarboxylic acid ethyl ester]
